According to ChEMBL document CHEMBL3885881, “DrugMatrix”:

Species on record: Rattus norvegicus
Test: DrugMatrix - Regimen: Daily Repeat
Type: toxicity, organism-based, Sprague-Dawley
Parameters: regimen Daily Repeat, gender Male, age 6-8 weeks
Settings: in vivo, po, route oral GAVAGE, vehicle .5 % CMC; for ABSOLUTE BASOPHIL / ABSOLUTE EOSINOPHIL / ABSOLUTE LYMPHOCYTE / ABSOLUTE MONOCYTE / ABSOLUTE SEGMENTED NEUTROPHIL / BASOPHIL / EOSINOPHIL / ERYTHROCYTE COUNT / HEMATOCRIT / HEMOGLOBIN / LEUKOCYTE COUNT / LYMPHOCYTE / MEAN CORPUSCULAR HEMOGLOBIN / MEAN CORPUSCULAR HEMOGLOBIN CONCENTRATION / MEAN CORPUSCULAR VOLUME / MONOCYTE / NEUTROPHIL / NUCLEATED RED BLOOD CELLS / PLATELET COUNT: tissue Blood; for ALANINE AMINOTRANSFERASE / ALBUMIN / ALKALINE PHOSPHATASE / ASPARTATE AMINOTRANSFERASE / BLOOD UREA NITROGEN / CARBON DIOXIDE / CHLORIDE / CHOLESTEROL / CREATINE PHOSPHOKINASE / CREATININE / GLUCOSE / LACTATE DEHYDROGENASE / LIPASE / PHOSPHORUS / POTASSIUM / SODIUM / TOTAL BILIRUBIN / TOTAL PROTEIN / URIC ACID: tissue Plasma
[1] = 0 mg/kg, 72 h, dose level Control, time 3 day
[2] = 0 mg/kg, 120 h, dose level Control, time 5 day
[3] = […], 72 h, dose 0.83 mg/Kg, dose level Low, time 3 day
[4] = […], 120 h, dose 0.83 mg/Kg, dose level Low, time 5 day

SMILES: C[C@]12CC[C@@H]3c4ccc(O)cc4CC[C@H]3[C@@H]1C[C@@H](O)[C@@H]2O [ESTRIOL]
- ABSOLUTE BASOPHIL [1]: 0 CELLS/uL
- ABSOLUTE EOSINOPHIL [1]: 171.33 CELLS/uL
- ABSOLUTE LYMPHOCYTE [1]: 13776.5 CELLS/uL
- ABSOLUTE MONOCYTE [1]: 180.83 CELLS/uL
- ABSOLUTE SEGMENTED NEUTROPHIL [1]: 1121.33 CELLS/uL
- BASOPHIL [1]: 0%
- EOSINOPHIL [1]: 1%
- ERYTHROCYTE COUNT [1]: 5.56 x10E6/uL
- HEMATOCRIT [1]: 34.75%
- HEMOGLOBIN [1]: 13.68 G/DL
- LEUKOCYTE COUNT [1]: 15.25 x10E3/uL
- LYMPHOCYTE [1]: 90.17%
- MEAN CORPUSCULAR HEMOGLOBIN [1]: 24.6 pg
- MEAN CORPUSCULAR HEMOGLOBIN CONCENTRATION [1]: 39.4 G/DL
- MEAN CORPUSCULAR VOLUME [1]: 62.48 fL
- MONOCYTE [1]: 1.17%
- NEUTROPHIL [1]: 7.67%
- NUCLEATED RED BLOOD CELLS [1]: 0 /100WBC
- PLATELET COUNT [1]: 1342 x10E3/uL
- ALANINE AMINOTRANSFERASE [1]: 49.67 u/L
- ALBUMIN [1]: 4.15 G/DL
- ALKALINE PHOSPHATASE [1]: 346.83 u/L
- ASPARTATE AMINOTRANSFERASE [1]: 108.17 u/L
- BLOOD UREA NITROGEN [1]: 17.33 mg/dL
- CARBON DIOXIDE [1]: 25 mmol/L
- CHLORIDE [1]: 100.83 MEQ/L
- CHOLESTEROL [1]: 66.83 mg/dL
- CREATINE PHOSPHOKINASE [1]: 788 u/L
- CREATININE [1]: 0.18 mg/dL
- GLUCOSE [1]: 151.67 mg/dL
- LACTATE DEHYDROGENASE [1]: 982.5 u/L
- LIPASE [1]: 10.33 u/L
- PHOSPHORUS [1]: 11.23 mg/dL
- POTASSIUM [1]: 6.37 MEQ/L
- SODIUM [1]: 141.02 MEQ/L
- TOTAL BILIRUBIN [1]: 0.18 mg/dL
- TOTAL PROTEIN [1]: 5.9 G/DL
- URIC ACID [1]: 1.8 mg/dL
- ABSOLUTE BASOPHIL [2]: 0 CELLS/uL
- ABSOLUTE EOSINOPHIL [2]: 69 CELLS/uL
- ABSOLUTE LYMPHOCYTE [2]: 13632.83 CELLS/uL
- ABSOLUTE MONOCYTE [2]: 139.83 CELLS/uL
- ABSOLUTE SEGMENTED NEUTROPHIL [2]: 1225 CELLS/uL
- BASOPHIL [2]: 0%
- EOSINOPHIL [2]: 0.33%
- ERYTHROCYTE COUNT [2]: 5.52 x10E6/uL
- HEMATOCRIT [2]: 33.98%
- HEMOGLOBIN [2]: 13.22 G/DL
- LEUKOCYTE COUNT [2]: 15.07 x10E3/uL
- LYMPHOCYTE [2]: 90.83%
- MEAN CORPUSCULAR HEMOGLOBIN [2]: 23.95 pg
- MEAN CORPUSCULAR HEMOGLOBIN CONCENTRATION [2]: 38.9 G/DL
- MEAN CORPUSCULAR VOLUME [2]: 61.53 fL
- MONOCYTE [2]: 0.83%
- NEUTROPHIL [2]: 8%
- NUCLEATED RED BLOOD CELLS [2]: 0 /100WBC
- PLATELET COUNT [2]: 1196 x10E3/uL
- ALANINE AMINOTRANSFERASE [2]: 49.17 u/L
- ALBUMIN [2]: 4.2 G/DL
- ALKALINE PHOSPHATASE [2]: 352.33 u/L
- ASPARTATE AMINOTRANSFERASE [2]: 89.67 u/L
- BLOOD UREA NITROGEN [2]: 18 mg/dL
- CARBON DIOXIDE [2]: 27.67 mmol/L
- CHLORIDE [2]: 101 MEQ/L
- CHOLESTEROL [2]: 72.83 mg/dL
- CREATINE PHOSPHOKINASE [2]: 417.5 u/L
- CREATININE [2]: 0.18 mg/dL
- GLUCOSE [2]: 150.5 mg/dL
- LACTATE DEHYDROGENASE [2]: 517.33 u/L
- LIPASE [2]: 9 u/L
- PHOSPHORUS [2]: 11.87 mg/dL
- POTASSIUM [2]: 6.57 MEQ/L
- SODIUM [2]: 143.62 MEQ/L
- TOTAL BILIRUBIN [2]: 0.2 mg/dL
- TOTAL PROTEIN [2]: 6.08 G/DL
- URIC ACID [2]: 1.45 mg/dL
- ABSOLUTE BASOPHIL [3]: 0 CELLS/uL
- ABSOLUTE EOSINOPHIL [3]: 41 CELLS/uL
- ABSOLUTE LYMPHOCYTE [3]: 11813.33 CELLS/uL
- ABSOLUTE MONOCYTE [3]: 115.33 CELLS/uL
- ABSOLUTE SEGMENTED NEUTROPHIL [3]: 930.33 CELLS/uL
- BASOPHIL [3]: 0%
- EOSINOPHIL [3]: 0.33%
- ERYTHROCYTE COUNT [3]: 5.37 x10E6/uL
- HEMATOCRIT [3]: 33.8%
- HEMOGLOBIN [3]: 13.17 G/DL
- LEUKOCYTE COUNT [3]: 12.9 x10E3/uL
- LYMPHOCYTE [3]: 91.33%
- MEAN CORPUSCULAR HEMOGLOBIN [3]: 24.53 pg
- MEAN CORPUSCULAR HEMOGLOBIN CONCENTRATION [3]: 38.97 G/DL
- MEAN CORPUSCULAR VOLUME [3]: 62.9 fL
- MONOCYTE [3]: 1%
- NEUTROPHIL [3]: 7.33%
- NUCLEATED RED BLOOD CELLS [3]: 0 /100WBC
- PLATELET COUNT [3]: 1229.33 x10E3/uL
- ALANINE AMINOTRANSFERASE [3]: 41.67 u/L
- ALBUMIN [3]: 4.13 G/DL
- ALKALINE PHOSPHATASE [3]: 500 u/L
- ASPARTATE AMINOTRANSFERASE [3]: 89.33 u/L
- BLOOD UREA NITROGEN [3]: 17.67 mg/dL
- CARBON DIOXIDE [3]: 23.67 mmol/L
- CHLORIDE [3]: 103.67 MEQ/L
- CHOLESTEROL [3]: 36 mg/dL
- CREATINE PHOSPHOKINASE [3]: 654.33 u/L
- CREATININE [3]: 0.23 mg/dL
- GLUCOSE [3]: 162 mg/dL
- LACTATE DEHYDROGENASE [3]: 616.67 u/L
- LIPASE [3]: 10.67 u/L
- PHOSPHORUS [3]: 11.97 mg/dL
- POTASSIUM [3]: 6.03 MEQ/L
- SODIUM [3]: 144.8 MEQ/L
- TOTAL BILIRUBIN [3]: 0.17 mg/dL
- TOTAL PROTEIN [3]: 6 G/DL
- URIC ACID [3]: 1.6 mg/dL
- ABSOLUTE BASOPHIL [4]: 0 CELLS/uL
- ABSOLUTE EOSINOPHIL [4]: 0 CELLS/uL
- ABSOLUTE LYMPHOCYTE [4]: 12894 CELLS/uL
- ABSOLUTE MONOCYTE [4]: 233.33 CELLS/uL
- ABSOLUTE SEGMENTED NEUTROPHIL [4]: 972.67 CELLS/uL
- BASOPHIL [4]: 0%
- EOSINOPHIL [4]: 0%
- ERYTHROCYTE COUNT [4]: 5.98 x10E6/uL
- HEMATOCRIT [4]: 36.97%
- HEMOGLOBIN [4]: 13.8 G/DL
- LEUKOCYTE COUNT [4]: 14.1 x10E3/uL
- LYMPHOCYTE [4]: 91.33%
- MEAN CORPUSCULAR HEMOGLOBIN [4]: 23.07 pg
- MEAN CORPUSCULAR HEMOGLOBIN CONCENTRATION [4]: 37.33 G/DL
- MEAN CORPUSCULAR VOLUME [4]: 61.87 fL
- MONOCYTE [4]: 1.67%
- NEUTROPHIL [4]: 7%
- NUCLEATED RED BLOOD CELLS [4]: 0 /100WBC
- PLATELET COUNT [4]: 1068.67 x10E3/uL
- ALANINE AMINOTRANSFERASE [4]: 43.67 u/L
- ALBUMIN [4]: 4.23 G/DL
- ALKALINE PHOSPHATASE [4]: 477 u/L
- ASPARTATE AMINOTRANSFERASE [4]: 80.33 u/L
- BLOOD UREA NITROGEN [4]: 17.33 mg/dL
- CARBON DIOXIDE [4]: 26.33 mmol/L
- CHLORIDE [4]: 101.67 MEQ/L
- CHOLESTEROL [4]: 36.33 mg/dL
- CREATINE PHOSPHOKINASE [4]: 414 u/L
- CREATININE [4]: 0.19 mg/dL
- GLUCOSE [4]: 148.33 mg/dL
- LACTATE DEHYDROGENASE [4]: 577 u/L
- LIPASE [4]: 8.33 u/L
- PHOSPHORUS [4]: 10.9 mg/dL
- POTASSIUM [4]: 6.26 MEQ/L
- SODIUM [4]: 144.2 MEQ/L
- TOTAL BILIRUBIN [4]: 0.23 mg/dL
- TOTAL PROTEIN [4]: 6.3 G/DL
- URIC ACID [4]: 1.63 mg/dL
